In patent publication US12534452B2, “N-(1H-imidazol-2-yl)benzamide compound and pharmaceutical composition comprising the same as active ingredient” (KAINOS MEDICINE, INC., priority 2019, dated 2026):

target: IRAK4 (Homo sapiens (Human), UniProt Q9NWZ3); test: In vitro IRAK4 phosphorylation activity assay; format: biochemical; conditions: [γ-33P]-ATP, myelin basic protein substrate, 40 minutes at room temperature; categories
Method in brief: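 Radiometric filter-binding assay, no compound–kinase preincubation; 8 mM MOPS pH 7.0, 0.2 mM EDTA, 10 mM Mg acetate, 0.33 mg/mL myelin basic protein substrate, [γ-33P]-ATP. Reaction 40 min at room temperature, stopped with phosphoric acid, scintillation counting; IC50 reported in categories.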

IRAK4, sequence (Q9NWZ3 whole entry): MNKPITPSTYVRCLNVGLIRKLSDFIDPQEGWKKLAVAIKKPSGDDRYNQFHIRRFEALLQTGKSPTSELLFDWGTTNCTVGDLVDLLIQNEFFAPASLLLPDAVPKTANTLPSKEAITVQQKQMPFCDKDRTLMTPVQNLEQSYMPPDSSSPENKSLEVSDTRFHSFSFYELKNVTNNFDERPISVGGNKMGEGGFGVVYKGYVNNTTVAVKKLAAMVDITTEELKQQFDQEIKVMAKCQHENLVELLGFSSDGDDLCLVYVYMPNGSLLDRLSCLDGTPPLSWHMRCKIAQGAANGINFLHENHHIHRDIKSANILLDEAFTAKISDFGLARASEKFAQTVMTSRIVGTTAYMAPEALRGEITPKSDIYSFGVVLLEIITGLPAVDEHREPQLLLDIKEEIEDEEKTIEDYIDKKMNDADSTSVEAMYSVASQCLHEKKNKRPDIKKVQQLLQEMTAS

SMILES	IC50 [nM]
C[C@@H]1CCC[C@H](C)N1C(=O)CCCCCc1cn(-c2ccccc2)c(NC(=O)c2cccc(-c3cn[nH]c3)c2)n1 [Example 97, N-(4-(6-((2R,6S)-2,6-dimethylpiperidin-1-yl)-6-oxohexyl)-1-phenyl-1H-imidazol-2-yl)-3-(1H-pyrazol-4-yl)benzamide]	< 50
COC[C@@H]1CCCN1NC(=O)CCCCCc1cn(-c2ccccc2)c(NC(=O)c2cccc(-c3cn[nH]c3)c2)n1 [Example 98, (S)—N-(4-(6-((2-(methoxymethyl)pyrrolidin-1-yl)amino)-6-oxohexyl)-1-phenyl-1H-imidazol-2-yl)-3-(1H-pyrazol-4-yl)benzamide]	< 50
COC[C@H]1CCCN1NC(=O)CCCCCc1cn(-c2ccccc2)c(NC(=O)c2cccc(-c3cn[nH]c3)c2)n1 [Example 99, (R)—N-(4-(6-((2-(methoxymethyl)pyrrolidin-1-yl)amino)-6-oxohexyl)-1-phenyl-1H-imidazol-2-yl)-3-(1H-pyrazol-4-yl)benzamide]	< 50
COC[C@@H]1CCCN1C(=O)CCCCCc1cn(-c2ccccc2)c(NC(=O)c2cccc(-c3cn[nH]c3)c2)n1 [Example 100, (S)—N-(4-(6-(2-(methoxymethyl)pyrrolidin-1-yl)-6-oxohexyl)-1-phenyl-1H-imidazol-2-yl)-3-(1H-pyrazol-4-yl)benzamide]	< 50
COC[C@H]1CCCN1C(=O)CCCCCc1cn(-c2ccccc2)c(NC(=O)c2cccc(-c3cn[nH]c3)c2)n1 [Example 101, (R)—N-(4-(6-(2-(methoxymethyl)pyrrolidin-1-yl)-6-oxohexyl)-1-phenyl-1H-imidazol-2-yl)-3-(1H-pyrazol-4-yl)benzamide]	< 50
O=C(Nc1nc(CCCCCCN2CCCCC2)cn1-c1ccccc1)c1cccc(-c2cn[nH]c2)c1 [Example 102, N-(1-phenyl-4-(6-(piperidin-1-yl)hexyl)-1H-imidazol-2-yl)-3-(1H-pyrazol-4-yl)benzamide]	< 50
O=C(Nc1nc(CCO)cn1-c1ccccc1)c1cccc(-c2cn[nH]c2)c1 [Example 103, N-(4-(2-hydroxyethyl)-1-phenyl-1H-imidazol-2-yl)-3-(1H-pyrazol-4-yl)benzamide]	< 50
O=C(Nc1nc(CCN2CCCCC2)cn1-c1ccccc1)c1cccc(-c2cn[nH]c2)c1 [Example 104, N-(1-phenyl-4-(2-(piperidin-1-yl)ethyl)-1H-imidazol-2-yl)-3-(1H-pyrazol-4-yl)benzamide]	> 100
O=C(Nc1nc(CCCO)cn1-c1ccccc1)c1cccc(-c2cn[nH]c2)c1 [Example 105, N-(4-(3-hydroxypropyl)-1-phenyl-1H-imidazol-2-yl)-3-(1H-pyrazol-4-yl)benzamide]	< 50
O=C(Nc1nc(CCCN2CCCCC2)cn1-c1ccccc1)c1cccc(-c2cn[nH]c2)c1 [Example 106, N-(1-phenyl-4-(3-(piperidin-1-yl)propyl)-1H-imidazol-2-yl)-3-(1H-pyrazol-4-yl)benzamide]	< 50
O=C(Nc1nc(CCCN2CCOCC2)cn1-c1ccccc1)c1cccc(-c2cn[nH]c2)c1 [Example 107, N-(4-(3-morpholinopropyl)-1-phenyl-1H-imidazol-2-yl)-3-(1H-pyrazol-4-yl)benzamide]	< 50
CN1CCN(CCCc2cn(-c3ccccc3)c(NC(=O)c3cccc(-c4cn[nH]c4)c3)n2)CC1 [Example 108, N-(4-(3-(4-methylpiperazin-1-yl)propyl)-1-phenyl-1H-imidazol-2-yl)-3-(1H-pyrazol-4-yl)benzamide]	< 50
O=C(Nc1nc(CCCNc2ccccc2)cn1-c1ccccc1)c1cccc(-c2cn[nH]c2)c1 [Example 109, N-(1-phenyl-4-(3-(phenylamino)propyl)-1H-imidazol-2-yl)-3-(1H-pyrazol-4-yl)benzamide]	< 50
O=C(Nc1nc(CCCN2CCSCC2)cn1-c1ccccc1)c1cccc(-c2cn[nH]c2)c1 [Example 110, N-(1-phenyl-4-(3-thiomorpholinopropyl)-1H-imidazol-2-yl)-3-(1H-pyrazol-4-yl)benzamide]	< 50
O=C(Nc1nc(CCCCO)cn1-c1ccccc1)c1cccc(-c2cn[nH]c2)c1 [Example 111, N-(4-(4-hydroxybutyl)-1-phenyl-1H-imidazol-2-yl)-3-(1H-pyrazol-4-yl)benzamide]	< 50
O=C(Nc1nc(CCCCNc2ccccc2)cn1-c1ccccc1)c1cccc(-c2cn[nH]c2)c1 [Example 112, N-(1-phenyl-4-(4-(phenylamino)butyl)-1H-imidazol-2-yl)-3-(1H-pyrazol-4-yl)benzamide]	> 100
O=C(Nc1nc(CCCCN2CCCCC2)cn1-c1ccccc1)c1cccc(-c2cn[nH]c2)c1 [Example 113, N-(1-phenyl-4-(4-(piperidin-1-yl)butyl)-1H-imidazol-2-yl)-3-(1H-pyrazol-4-yl)benzamide]	< 50
O=C(Nc1nc(CCCCN2CCOCC2)cn1-c1ccccc1)c1cccc(-c2cn[nH]c2)c1 [Example 114, N-(4-(4-morpholinobutyl)-1-phenyl-1H-imidazol-2-yl)-3-(1H-pyrazol-4-yl)benzamide]	< 50

SMILES	IC50 [nM]
O=C(Nc1nc(CCCCN2CCSCC2)cn1-c1ccccc1)c1cccc(-c2cn[nH]c2)c1 [Example 115, N-(1-phenyl-4-(4-thiomorpholinobutyl)-1H-imidazol-2-yl)-3-(1H-pyrazol-4-yl)benzamide]	< 50
O=C(Nc1nc(CCCCCO)cn1-c1ccccc1)c1cccc(-c2cn[nH]c2)c1 [Example 116, N-(4-(5-hydroxypentyl)-1-phenyl-1H-imidazol-2-yl)-3-(1H-pyrazol-4-yl)benzamide]	< 50
O=C(Nc1nc(CCCCCNc2ccccc2)cn1-c1ccccc1)c1cccc(-c2cn[nH]c2)c1 [Example 117, N-(1-phenyl-4-(5-(phenylamino)pentyl)-1H-imidazol-2-yl)-3-(1H-pyrazol-4-yl)benzamide]	< 50
O=C(Nc1nc(CCCCCN2CCCCC2)cn1-c1ccccc1)c1cccc(-c2cn[nH]c2)c1 [Example 118, N-(1-phenyl-4-(5-(piperidin-1-yl)pentyl)-1H-imidazol-2-yl)-3-(1H-pyrazol-4-yl)benzamide]	< 50
O=C(Nc1nc(CCCCCN2CCOCC2)cn1-c1ccccc1)c1cccc(-c2cn[nH]c2)c1 [Example 119, N-(4-(5-morpholinopentyl)-1-phenyl-1H-imidazol-2-yl)-3-(1H-pyrazol-4-yl)benzamide]	< 50
O=C(Nc1nc(CCCCCN2CCSCC2)cn1-c1ccccc1)c1cccc(-c2cn[nH]c2)c1 [Example 120, N-(1-phenyl-4-(5-thiomorpholinopentyl)-1H-imidazol-2-yl)-3-(1H-pyrazol-4-yl)benzamide]	< 50
O=C(Nc1nc(CCCCCCO)cn1-c1ccccc1)c1cccc(-c2cn[nH]c2)c1 [Example 121, N-(4-(6-hydroxyhexyl)-1-phenyl-1H-imidazol-2-yl)-3-(1H-pyrazol-4-yl)benzamide]	< 50
O=C(Nc1nc(CCCCCCNc2ccccc2)cn1-c1ccccc1)c1cccc(-c2cn[nH]c2)c1 [Example 122, N-(1-phenyl-4-(6-(phenylamino)hexyl)-1H-imidazol-2-yl)-3-(1H-pyrazol-4-yl)benzamide]	50 to 100
O=C(Nc1nc(CCCCCCN2CCOCC2)cn1-c1ccccc1)c1cccc(-c2cn[nH]c2)c1 [Example 123, N-(4-(6-morpholinohexyl)-1-phenyl-1H-imidazol-2-yl)-3-(1H-pyrazol-4-yl)benzamide]	< 50
O=C(Nc1nc(CCCCCCN2CCSCC2)cn1-c1ccccc1)c1cccc(-c2cn[nH]c2)c1 [Example 124, N-(1-phenyl-4-(6-thiomorpholinohexyl)-1H-imidazol-2-yl)-3-(1H-pyrazol-4-yl)benzamide]	< 50
O=C(Nc1nc(CCCCCC[N+]2([O-])CCCCC2)cn1-c1ccccc1)c1cccc(-c2cn[nH]c2)c1 [Example 125, 1-(6-(2-(3-(1H-pyrazol-4-yl)benzamido)-1-phenyl-1H-imidazol-4-yl)hexyl)piperidine 1-oxide]	< 50
O=C(Nc1nc(CCC[N+]2([O-])CCOCC2)cn1-c1ccccc1)c1cccc(-c2cn[nH]c2)c1 [Example 126, 4-(3-(2-(3-(1H-pyrazol-4-yl)benzamido)-1-phenyl-1H-imidazol-4-yl)propyl)morpholine 4-oxide]	< 50
CCOC(C)n1cc(-c2cccc(C(=O)Nc3nc(CCCCCCN4CCCCC4)cn3-c3ccccc3)c2)cn1 (stereo not drawn) [Example 138, 3-(1-(1-ethoxyethyl)-1H-pyrazol-4-yl)-N-(1-phenyl-4-(6-(piperidin-1-yl)hexyl)-1H-imidazol-2-yl)benzamide]	50 to 100
CNC(=O)CCCc1cn(-c2ccccc2)c(NC(=O)c2cccc(-c3cnn(C)c3)c2)n1 [Example 139, 3-(1-methyl-1H-pyrazol-4-yl)-N-(4-(4-(methylamino)-4-oxobutyl)-1-phenyl-1H-imidazol-2-yl)benzamide]	< 50
Cn1cc(-c2cccc(C(=O)Nc3nc(CCCC(=O)O)cn3-c3ccccc3)c2)cn1 [Example 140, 4-(2-(3-(1-methyl-1H-pyrazol-4-yl)benzamido)-1-phenyl-1H-imidazol-4-yl)butanoic acid]	50 to 100
Cn1cc(-c2cccc(C(=O)Nc3nc(CCCC(=O)NC4CC4)cn3-c3ccccc3)c2)cn1 [Example 141, N-(4-(4-(cyclopropylamino)-4-oxobutyl)-1-phenyl-1H-imidazol-2-yl)-3-(1-methyl-1H-pyrazol-4-yl)benzamide]	< 50
Cn1cc(-c2cccc(C(=O)Nc3nc(CCCC(=O)N4CCCCC4)cn3-c3ccccc3)c2)cn1 [Example 142, 3-(1-methyl-TH-pyrazol-4-yl)-N-(4-(4-oxo-4-(piperidin-1-yl)butyl)-1-phenyl-1H-imidazol-2-yl)benzamide]	< 50
CN1CCN(C(=O)CCCc2cn(-c3ccccc3)c(NC(=O)c3cccc(-c4cnn(C)c4)c3)n2)CC1 [Example 143, 3-(1-methyl-1H-pyrazol-4-yl)-N-(4-(4-(4-methylpiperazin-1-yl)-4-oxobutyl)-1-phenyl-1H-imidazol-2-yl)benzamide]	< 50
